Reference: patent publication US20230212131A1, “COLLAGEN 1 TRANSLATION INHIBITORS AND METHODS OF USE THEREOF” (Anima Biotech Inc., priority 2020, published 2023)

tested on: collagen 1 (COL1); test: WI-38 collagen 1 inhibition assay; format: cell-based, human; settings: Cellular EC50, WI-38 cells; values are classes of LogEC50
Source text: All compounds were profiled for cellular potency in inhibition of collagen 1 (COL1) protein translation using a phenotypic screening platform.
WI-38 cells (ATCC® CCL-75™) were maintained in MEM EAGLE (NEAA) W. GLUTAMIN (Biological Industries, Cat. 06-1040-15-1A) containing 10% fetal bovine serum (FBS) and 1% Penicillin-Streptomycin Solution. To synchronize the cells (cell cycle synchronization) prior to induction of collagen synthesis, the cells were starved using DMEM-low glucose supplemented with 0.25% FBS for two hours and then without FBS for 24 hours. To induce collagen synthesis, the cells were treated with a collagen induction cocktail for the indicated time. Compounds were added with induction.
Cells in 96-well or 384-well plates were fixed for 20 min in 4% paraformaldehyde (PFA, ENCO, Cat. sc-281692). Following two washes with 1×PBS, cells were treated with hydrogen peroxide (Acros, Cat: 7722-84-1) for 10 minutes and then washed twice with 1×PBS. Cells were then incubated over-night at 4° C. with Anti-Collagen I (Sigma-Aldrich, Cat: C 2456) antibody and washed three times with 1×PBS. Cells were then incubated with a suitable secondary fluorescently-tagged antibody and nuclei stained with DAPI, for 1 hour, and then washed 3 times with 1×PBS.
Cell images were taken with Operetta (Perkin Elmer, USA), a wide-field fluorescence microscope at 20× magnification. After acquisition, the images were transferred to Columbus software (Perkin-Elmer) for image analysis. In Columbus, cells were identified by their nucleus, using the “Find Nuceli” module and cytoplasm was detected based on the secondary antibody channel. Subsequently, the fluorescent signal was enumerated in the identified cell region. Data was exported to a data analysis and visualization software, Tibco Spotfire, USA.

| SMILES | COL1 Efficacy (LogEC50) |
| --- | --- |
| CC(=O)N1CCN(c2ccc(C(=O)Nc3nc(-c4ccccc4Cl)cs3)s2)CC1 [Compound 463, 5-(4-acetylpiperazin-1-yl)-N-(4-(2-chlorophenyl)thiazol-2-yl)thiophene-2-carboxamide] | +++ (+++: <−6) |
| CN1CCC[C@H]1C(=O)N1CCN(c2ccc(C(=O)Nc3nc(-c4ccccc4Cl)cs3)nc2)CC1 [Compound 466, N-(4-(2-chlorophenyl)thiazol-2-yl)-5-(4-(methylprolyl)piperazin-1-yl)picolinamide] | +++ (+++: <−6) |
| CN1CCCC(C(=O)N2CCN(c3ccc(C(=O)Nc4nc(-c5ccccc5Cl)cs4)nc3)CC2)C1 (centres unmarked) [Compound 467, N-(4-(2-chlorophenyl)thiazol-2-yl)-5-(4-(1-methylpiperidine-3-carbonyl)piperazin-1-yl)picolinamide hemiformate] | +++ (+++: <−6) |
| COCc1ccccc1-c1csc(NC(=O)c2ccc(N3CCC(O)CC3)cn2)n1 [Compound 468, 5-(4-hydroxypiperidin-1-yl)-N-(4-(2-(methoxymethyl)phenyl)thiazol-2-yl)picolinamide] | +++ (+++: <−6) |
| CN1CCC(C(=O)N2CCN(c3ccc(C(=O)Nc4nc(-c5ccccc5Cl)cs4)nc3)CC2)C1 (centres unmarked) [Compound 482, N-(4-(2-chlorophenyl)thiazol-2-yl)-5-(4-(1-methylpyrrolidine-3-carbonyl)piperazin-1-yl)picolinamide] | +++ (+++: <−6) |
| CN1CCC(C(=O)N2CCN(c3ccc(C(=O)Nc4nc(-c5ccccc5Cl)cs4)nc3)CC2)CC1 [Compound 483, N-(4-(2-chlorophenyl)thiazol-2-yl)-5-(4-(1-methylpiperidine-4-carbonyl)piperazin-1-yl)picolinamide] | +++ (+++: <−6) |
| CN1CCC[C@@H](C(=O)N2CCN(c3ccc(C(=O)Nc4nc(-c5ccccc5Cl)cs4)nc3)CC2)C1 [Compound 485, (R)—N-(4-(2-chlorophenyl)thiazol-2-yl)-5-(4-(1-methylpiperidine-3-carbonyl)piperazin-1-yl)picolinamide] | +++ (+++: <−6) |
| CN1CCC[C@H](C(=O)N2CCN(c3ccc(C(=O)Nc4nc(-c5ccccc5Cl)cs4)nc3)CC2)C1 [Compound 486, (S)—N-(4-(2-chlorophenyl)thiazol-2-yl)-5-(4-(1-methylpiperidine-3-carbonyl)piperazin-1-yl)picolinamide] | +++ (+++: <−6) |
| O=C(Nc1nc(-c2ccccc2Cl)cs1)c1ccc(Br)cc1 [compound 310] | +++ (+++: <−6) |
| O=C(Nc1nc(-c2cc(Cl)sc2Cl)cs1)c1ccc(Cl)cc1 [compound 311] | ++ (++: −5 to −6) |
| O=C(Nc1nc(-c2cc(Cl)sc2Cl)cs1)c1ccccc1 [compound 312] | ++ (++: −5 to −6) |
| Cc1ccc(C(=O)Nc2nc(-c3cc(Cl)sc3Cl)cs2)cc1 [compound 313] | +++ (+++: <−6) |
| CC(C)=CC(=O)Nc1nc(-c2cc(Cl)sc2Cl)cs1 [compound 314] | ++ (++: −5 to −6) |
| Cc1ccc(C(=O)Nc2nc(-c3ccccc3Cl)cs2)cn1 [compound 318, N-[4-(2-chlorophenyl)thiazol-2-yl]-6-methyl-pyridine-3-carboxamide] | +++ (+++: <−6) |
| Cc1ncc(C(=O)Nc2nc(-c3ccccc3Cl)cs2)cn1 [compound 320, N-[4-(2-chlorophenyl)thiazol-2-yl]-2-methyl-pyrimidine-5-carboxamide] | ++ (++: −5 to −6) |
| CN1CCN(c2ccc(C(=O)Nc3nc(-c4ccccc4Cl)cs3)cc2)CC1 [compound 322, N-[4-(2-chlorophenyl)thiazol-2-yl]-4-(4-methylpiperazin-1-yl)benzamide] | +++ (+++: <−6) |
| CN1CCC(C(=O)Nc2nc(-c3ccccc3Cl)cs2)CC1 [compound 324, N-[4-(2-chlorophenyl)thiazol-2-yl]-1-methyl-piperidine-4-carboxamide] | ++ (++: −5 to −6) |
